According to US6774139B1, “Dual function microbicides” (Parker Hughes Institute, priority 2000, dated 2004):
Where two headings read alike, the source gives them in different places.

How the values were obtained:
HIV-1 strain HTLVIIIB = assay: p24 antigen production in HIV-1 infected PBMCs; type: cell-based
Protocol: The HTLVIIIB strain of HIV-1 was propagated in CCRF-CEM cells and the virus stocks obtained from cell-free supernatants of infected cells were titered using MT-2 cells. Cell-free supernatants were harvested and frozen in 1 ml aliquots at −70° C.
Stock solutions (10 mM) of thiourea compounds were prepared in dimethylsulfoxide (DMSO). Cells were cultured for 7 days in 96-well microtiter plates (100 μl/well; 2×10^6 cells/ml, triplicate wells) in the presence and absence of various concentrations (0.001 μM to 100 μM) of the thioureas. Cells from non-infected controls were handled in the same way except the virus was omitted from the preparation. Aliquots of culture supernatants were removed from the wells on the 7th day after infection for p24 antigen as previously described. The p24 enzyme immunoassay was the unmodified kinetic assay available commercially (Coulter Corporation/Immunotech, Inc., Westbrook, Me.). The assay uses a murine monoclonal antibody (mAb) to the HIV core protein coated onto microwell strips to which the antigen present in the test culture supernatant sample binds. The plates were read on a ELISA reader (Molecular Devices, Sunnyvale, Calif.) at 650 nm and p24 levels, expressed as ng/ml, were calculated against known standards supplied by Coulter/Imrunotech, Inc. Percent viral inhibition was calculated by comparing the p24 values for the test substance-treated infected cells with the p24 values for untreated infected cells (i.e., virus controls). […]

[1] = target: T1, purified recombinant HIV-1 RT (Human immunodeficiency virus type 1 group M subtype B, UniProt P03366); assay: cell-free Quan-T-RT RT inhibition assay (scintillation proximity); type: biochemical; settings: for IC50: purified recombinant HIV-1 RT, cell-free
T1 construct: purified recombinant HIV-1 RT
Protocol: Each of the thirty one thiourea compounds was tested for RT inhibitory activity against purified recombinant HIV-1 RT using the cell-free Quan-T-RT system (Amersham Corp., Arlington Heights, Ill.), which utilizes the scintillation proximity assay principle.

human sperm = assay: sperm immobilizing activity (SIA) by CASA; type: cell-based; settings: for EC50: read-out: EC50 [SIA]
Protocol: To evaluate the effect of each of the 31 thiourea compounds on human sperm motility and kinematics, highly motile fractions of sperm were prepared from donor semen (n=8) by discontinuous (90-45%) gradient centrifugation using Enhance Plus medium (Conception Technologies, San Diego, Calif.) and the “swim-up” method. The swim-up method was used after density gradient centrifugation, washing, and resuspension of sperm in BWW-3% BSA. Pooled swim-up fraction was washed once prior to spermicidal assay.
All donor semen specimens were obtained after informed consent and in compliance with the guidelines of the Parker Hughes Institute Institutional Review Board. […] The stock solutions of thioureas were prepared in DMSO (100 mM) and diluted in assay medium to yield the desired concentrations (up to 1000 μM). Corresponding volume of DMSO (either 0.5% or 1%) was added to control tubes. After 3 hours of incubation at 37° C., the percentage of motile sperm was evaluated by CASA [53, 62-64]. The percent motilities were compared with sham-treated control suspensions of motile sperm.
For CASA, 5-μl of each sperm suspension was loaded into a 20-μm Microcell slide (Conception Technologies) in a counting chamber at 37° C. At least 5-8 fields per slide were scanned for analysis using a Hamilton Thome Integrated Visual Optical System (IVOS), version 10 instrument (Hamilton Thome Research Inc., Danvers, Mass.). Each field was recorded for 30 seconds. The computer calibrations were set at 30 frames at a frame rate of 30/second.
The sperm kinematics parameters that were determined included numbers of motile (MOT) and progressively (PRG) motile sperm; curvilinear velocity (VCL; a measure of the total distance traveled by a given sperm during the acquisition divided by the time elapsed); average path velocity (VAP; the spatially averaged path that eliminates the wobble of the sperm head), straight line velocity (VSL; the straight-line distance from beginning to end of track divided by time taken), beat cross frequency (BCF; frequency of sperm head crossing sperm average path), the amplitude of lateral head displacement (ALH; the mean width of sperm head oscillation), and the derivatives, straightness (STR=VSL/VAP×100) and linearity (LIN=VSL/VCL×100; departure of sperm track from a straight line). Data from each individual cell track were recorded and analyzed. At least 200 motile sperm were analyzed for each aliquot sampled.

[2] = partition coefficient n-octanol/water (Pa); type: physicochemical; settings: UV absorption
Protocol: Partition of the test compounds between n-octanol and water as a measure of their lipophilicity was determined by taking the UV absorption of each compound in n-octanol, water-saturated n- octanol (1:1), and n-octanol-saturated water (1:1). The UV absorption maxima were determined by selecting a wavelength with the maximum absorption peak in the water-saturated octanol layer and the corresponding peak in the octanol-saturated water. Three absorption spectra were obtained for each compound. The partion coefficient (Pa) was calculated as the ratio of the compound concentration present in the lipid phase to the compound concentration present in the aqueous phase.

[3] = Human immunodeficiency virus 1, PBMC, HIV-1 HTLVIIIB infected human PBMC, p24 antigen on 7th day, read-out: IC50 [p24]
[4] = Human immunodeficiency virus 1, PBMC, HIV-1 HTLVIIIB infected human PBMC, values in nM, read-out: IC50[p24]
[5] = motile human sperm, 3 hours at 37° C., CASA
[6] = Human immunodeficiency virus 1, PBMC, read-out: IC50 [p24]

Row | SMILES | IC50 (HIV-1 strain HTLVIIIB; [3]) | IC50 (HIV-1 strain HTLVIIIB; [4]) | IC50 ([1]; IC50 [rRT]) | EC50 (human sperm; [5]) | Pa, Partition coefficient [2] | also measured
1 | S=C(NCCN1CCCCC1)Nc1ccc(Br)cn1 [HI 172] | < 1 nM | < 1 nM | 5800 nM | > 500 µM | 8.91 | –
2 | S=C(NCCN1CCCC1)Nc1ccc(Br)cn1 [HI 230] | 1000 nM | – | > 100000 nM | > 500 µM | 7.91 | –
3 | COc1ccc(CCNC(=S)Nc2ccc(Br)cn2)cc1OC [HI 232] | – | – | > 100000 nM | > 500 µM | 22.7 | –
4 | COc1ccc(OC)c(CCNC(=S)Nc2ccc(Br)cn2)c1 [HI 236] | < 1 nM | < 1 nM | 100 nM | > 500 µM | 1.78 | –
5 | COc1ccccc1CCNC(=S)Nc1ccc(Br)cn1 [HI 237] | 10 nM | – | 1000 nM | > 500 µM | 3.79 | –
6 | COc1cccc(CCNC(=S)Nc2ccc(Br)cn2)c1 [HI 239] | 3 nM | 1 to 10 nM | 400 nM | > 500 µM | 1.07 | –
7 | Fc1cccc(CCNC(=S)Nc2ccc(Br)cn2)c1 [HI 241] | < 1 nM | < 1 nM | 700 nM | > 500 µM | – | –
8 | Fc1ccc(CCNC(=S)Nc2ccc(Br)cn2)cc1 [HI 242] | 9 nM | 1 to 10 nM | 6400 nM | > 500 µM | 10.7 | –
9 | S=C(NCCc1ccc(Br)cc1)Nc1ccc(Br)cn1 [HI 243] | 70 nM | – | 900 nM | > 500 µM | 4.16 | –
10 | Cc1ccc(CCNC(=S)Nc2ccc(Br)cn2)cc1 [HI 244] | 30 nM | – | 700 nM | > 500 µM | 1.49 | –
11 | S=C(NCCc1cccc(Cl)c1)Nc1ccc(Br)cn1 [HI 254] | 10 nM | – | 3100 nM | > 500 µM | 6.20 | –
12 | S=C(NCCc1ccc(Cl)cc1)Nc1ccc(Br)cn1 [HI 255] | 1 nM | 1 to 10 nM | 400 to 6400 nM | 160 µM | 2.23 | –
13 | Oc1ccc(CCNC(=S)Nc2ccc(Br)cn2)cc1 [HI 256, N-[2-(4-hydroxyphenethyl)]-N′-[2-(5-bromopyridyl)]thiourea] | – | – | – | 233 ± 68 µM | 2.93 | IC50 (HIV-1 strain HTLVIIIB; [6]): 3060 nM
14 | S=C(NCCN1CCNCC1)Nc1ccc(Br)cn1 [HI 258] | 2 nM | 2 nM | > 100000 nM | > 500 µM | 5.92 | –
15 | S=C(NCCc1ccccc1)Nc1ccc(Br)cn1 [HI 275] | 4 nM | 4 nM | 1250 nM | 361 ± 31 µM | 3.50 | –
16 | FC(F)(F)c1ccc(NC(=S)NCCc2ccccc2)nc1 [HI 308, N-[2-(phenethyl)]-N′-[2-(5-trifluoromethylpyridinyl)]-thiourea] | – | – | > 100000 nM | > 500 µM | – | anti-HIV activity (in words) [1]: inactive
17 | FC(F)(F)c1ccc(NC(=S)NCCc2ccccn2)nc1 [HI 309] | – | – | 13900 nM | > 500 µM | 3.81 | –
18 | COc1ccc(OC)c(CCNC(=S)Nc2ccc(C(F)(F)F)cn2)c1 [HI 310, N-[2-(5-dimethoxyphenethyl)]-N′-[2-(5-trifluoromethylpyridinyl)]-thiourea] | – | – | – | 276 ± 22 µM | 1.00 | IC50 (HIV-1 strain HTLVIIIB; HIV-1 HTLVIIIB infected human PBMC, p24 antigen on 7th day, read-out: IC50 [p24]): 80 nM; IC50 ([1]; read-out: IC50 [rRT]): 2000 nM
19 | Fc1ccccc1CCNC(=S)Nc1ccc(C(F)(F)F)cn1 [HI 311] | 90 nM | – | 600 nM | > 500 µM | 5.13 | –
20 | FC(F)(F)c1ccc(NC(=S)NCCN2CCCCC2)nc1 [HI 344] | – | – | > 100000 nM | 131 µM | 10.27 | –
21 | Fc1cccc(CCNC(=S)Nc2ccc(Br)cn2)c1 [HI 345] | – | – | – | > 500 µM | 1.51 | IC50 ([1]; read-out: IC50 [rRT]): 700 nM
22 | FC(F)(F)c1ccc(NC(=S)NCCC2=CCCCC2)nc1 [HI 347, N-[2-(5-trifluoromethylpyridinyl)]-N′-[2-(1-cyclohexenyl)ethyl]-thiourea] | – | – | – | 131 ± 4 µM | 11.5 | IC50 (HIV-1 strain HTLVIIIB; [6]): 79 nM; anti-HIV activity, fold less active than halo functionalized derivatives (HIV-1 strain HTLVIIIB; versus PHI-346 and PHI-445): 26 fold; effective 100% inhibitory concentration (EC100), sperm motility (human sperm; FIG. 1, CASA): 0.25 mM; SIA, fold less active than halo functionalized derivatives (human sperm; versus PHI-346 and PHI-445): two to three-fold less active
23 | S=C(NCCc1cccs1)Nc1ccc(Br)cn1 [HI 443] | – | – | 5300 nM | > 500 µM | – | IC50 (HIV-1 strain HTLVIIIB; [6]): 30 nM
24 | CC1(C)C2CCC(CNC(=S)Nc3ccc(Br)cn3)C1C2 (stereo not drawn) [HI 444] | – | – | – | > 500 µM | 2.1 | anti-HIV activity (in words) [1]: loss of anti-HIV activity; IC50 ([1]; read-out: IC50 [rRT]): > 100000 nM
25 | S=C(NCCC1=CCCCC1)Nc1ccccn1 [HI-541] | 10 nM | – | 5300 nM | > 500 µM | – | –
26 | S=C(NCCc1ccccn1)Nc1ccc(Br)cn1 [Trovirdine, reference compound] | – | – | – | – | 5.3 | IC50 (HIV-1 strain HTLVIIIB; [6]): 7 nM; SIA / sperm motility (in words) (human sperm): lacked SIA; EC50 (human sperm; Homo sapiens, Sperm, 3 h): > 500 µM
